From PubChem BioAssay AID1996
≈ marks a conversion by molar mass, not a printed value.

Details: buffer; pH 7.4; 200.0 µM

| Compound | solubility kinetic [µg/mL] |
| --- | --- |
| CCOC(=O)c1cnc2c(C)cccc2c1NCCCN1CCOCC1 | > 53.6 |
| Cc1ccc(C)c(NCC(=O)c2ccc(Cl)cc2)c1 | 2.2 (≈ 8.04 µM) |
| Cc1nc(N)nc(SCc2ccc([N+](=O)[O-])cc2)c1N | 16.1 (≈ 55.3 µM) |
| CC1(C)OC(C)(C)/C(=C\c2ccccc2[N+](=O)[O-])C1=O | 27.7 (≈ 101 µM) |
| CCC(C)[C@H](NC(=O)Nc1ccccc1F)C(=O)OC (stereo not given in full) | > 42.3 |
| COc1ccc2c(c1)nc(CN1CCN(CCO)CC1)n2C | > 45.7 |
| CCOC(=O)c1sc(=S)n(-c2ccccc2Cl)c1C | 2.7 (≈ 8.6 µM) |
| Cc1c(C(=O)N2CCOCC2)sc(NC(=O)CCl)c1C#N | > 49.2 |
| COc1ccc(C(=O)Nc2ccc(Nc3ccccc3)cc2)cc1OC | < 0.4 |
| COC(=O)/C(C#N)=C/c1ccc(C)o1 | 20.7 (≈ 108 µM) |
| O=C(O)CNc1nc(-c2ccccc2)nc2c1oc1ccccc12 | > 47.9 |
| CC(=O)Nc1ccc(S(=O)(=O)N2CCNC(=O)C2)cc1 | > 44.6 |
| FC(F)(F)c1cccc(-n2cc(-c3ccccc3)[nH]c2=S)c1 | < 0.3 |
| Cc1cccc(-c2cc(C(=O)Nc3ccncc3)c3ccccc3n2)c1 | 0.8 (≈ 2.36 µM) |
| Cc1cc(C)nc(/N=C(\NC(=O)C(C)(C)C)Nc2ccccc2)n1 | 1.8 (≈ 5.53 µM) |
| Cc1ccc(CNC(=O)CN2CCN(c3ccc(F)cc3)CC2)cc1 | > 51.2 |
| COc1ccccc1NC(=O)C1CCN(S(C)(=O)=O)CC1 | > 46.9 |
| COc1ccc(-c2csc(N(C)C(=O)c3ccco3)n2)cc1 | < 0.3 |
| CSc1nc2c(cc1C#N)CCC2 | 5.1 (≈ 26.8 µM) |
| Cn1c(=O)c2c(ncn2CCO)n(C)c1=O | > 33.6 |
| CC(=O)c1cn(N2CCCCC2)c(=O)[nH]c1=O | > 35.6 |
| CNC(=S)N1CCC(Cc2ccccc2)CC1 | 36.9 (≈ 149 µM) |
| Cc1cccc(Nc2nc(N)nc(CCl)n2)c1 | > 37.5 |
| COc1ccc(NC(=O)N2C[C@@H]3C[C@@H](C2)c2cccc(=O)n2C3)cc1 | > 50.9 |

| Compound | solubility kinetic [µg/mL] |
| --- | --- |
| Cc1ccc(C(=O)OCC(=O)NCCc2ccccc2)cc1C | 11.3 (≈ 36.3 µM) |
| O=C1CN(S(=O)(=O)c2ccc([N+](=O)[O-])cc2)CC(=O)N1 | > 44.9 |
| COC(=O)c1ccc(Cn2cnc3cnccc32)cc1 | 29.9 (≈ 112 µM) |
| CN(C)C(=O)c1ccc(=O)n(Cc2ccc(Cl)cc2Cl)c1 | > 48.8 |
| COc1ccc(/C=C(\C#N)C(=O)NCc2ccccc2)cc1 | 2.2 (≈ 7.53 µM) |
| CC(=O)c1sccc1NC(=O)CC(C)(C)CC(=O)O | 32.5 (≈ 115 µM) |
| CC1CC(C)CN(CC(O)COCc2ccccc2)C1.Cl (stereo not given) | 46.9 |
| C=CCc1c(N(CC)CC)nc(C)[nH]c1=O | > 33.2 |
| O=C(COC(=O)c1ccc(Br)o1)NC12CC3CC(CC(C3)C1)C2 | 34.3 (≈ 89.7 µM) |
| O=C(O)c1cccc([N+](=O)[O-])c1C(=O)Nc1cccc2ccccc12 | 39.5 (≈ 117 µM) |
| CCOc1ccc(NC(=O)CN(C)C(=O)c2ccncc2)cc1OCC | > 53.6 |
| CCc1ccccc1NC(=S)N(CCN(C)C)C(C)c1cccnc1 (stereo not given) | 50.9 (≈ 143 µM) |
| COc1cc(C(=O)OCC(=O)NC2CC2)ccc1OCCC(C)C | 6.8 (≈ 20.3 µM) |
| COc1ccc(CC(=O)NC(CC(=O)O)c2cccc([N+](=O)[O-])c2)cc1 (stereo not given) | > 53.8 |
| Cc1ccc(SCC(=O)Nc2cc(S(=O)(=O)N3CCCCC3)ccc2C)cc1 | 9.9 (≈ 23.7 µM) |
| CN(C)S(=O)(=O)c1ccc(NC=O)cc1 | > 34.2 |
| CCC(C)[C@H](NC(=O)NCc1ccc(OC)c(OC)c1)C(=O)O (stereo not given in full) | 39.9 (≈ 123 µM) |
| COc1ccc(NC(=O)NC(=O)c2ccccc2)cc1 | 1.3 (≈ 4.81 µM) |
| CCOC(=O)c1nc2ccccc2c(=O)[nH]1 | > 32.7 |
| Cc1cnc(=O)[nH]c1SCc1cccc([N+](=O)[O-])c1 | 5.6 (≈ 20.2 µM) |
| Cc1nc(-c2ccc(-c3ccon3)s2)no1 | 16.6 (≈ 71.2 µM) |
| COCc1cc(OC)nc(-c2csc(C)n2)n1 | 32.5 (≈ 129 µM) |
| O=C(c1c(F)cccc1F)N(C1CCCCC1)C1CCCCC1 | 1 (≈ 3.11 µM) |
| Cc1ccc(C(=O)NCCNC(=O)c2ccc(F)cc2)cn1 | > 45.2 |

| Compound | solubility kinetic [µg/mL] |
| --- | --- |
| Cc1ccc(S(=O)(=O)NC(=O)Nc2ccc(C)cn2)cc1 | > 45.8 |
| Cl.Fc1ccccc1CNC1CN2CCC1CC2 (stereo not given) | > 46.1 |
| CC1C(=O)N2CCCc3cc(S(=O)(=O)N(C)CCC#N)cc1c32 (stereo not given) | > 50 |
| Cc1cc(NC(=O)Cc2ccccc2C)no1 | 32.5 (≈ 141 µM) |
| Cn1c(-c2cc3ccccc3oc2=O)nc2ccccc21 | 2.5 (≈ 9.05 µM) |
| CN1CCCN=C1COC(=O)C(O)(c1ccccc1)C1CCCCC1.Cl (stereo not given) | > 57.1 |
| CCC(=O)NCc1ccc2[nH]c(C)cc2c1 | 32.3 (≈ 149 µM) |
| Fc1ccc(CN2CCCN(C(=S)Nc3ccc(F)cc3)CC2)cc1 | > 54.2 |
| O=C(O)c1ccc(/C=N/Nc2ncc(Cl)cc2Cl)cc1 | > 46.5 |
| COC(=O)c1c(C)[nH]c(C(=O)OCC(=O)NC(C)(C)C)c1C | > 46.6 |
| O=C(c1cccs1)N1CCN=C1SCc1ccc(F)cc1 | < 0.3 |
| Cc1ccc([N+](=O)[O-])cc1N(CC(=O)NC1CCCC1)S(C)(=O)=O | > 53.3 |
| COc1ccc(CCNC(=O)CN2C(=O)NC(c3ccccc3)(c3ccccc3)C2=O)cc1 | 10 (≈ 22.5 µM) |
| Cc1cc2ccccn2c1C(=O)c1ccc([N+](=O)[O-])o1 | 1.3 (≈ 4.81 µM) |
| CCNc1nc(NC(C)C)nc(N(C)C#N)n1 | > 35.3 |
| O=C(Nc1ccncc1)Nc1cccc(Cl)c1 | 35.9 (≈ 145 µM) |
| N#Cc1c(N2C(=O)c3ccc(C(=O)O)cc3C2=O)sc2c1CCCC2 | > 52.9 |
| Cc1ccc(CN2CCC(CO)(CC3CCCCO3)CC2)o1 (stereo not given) | > 46.1 |
| N=C1/C(=C/c2cccn2Cc2ccc(F)cc2)C(=O)N=C2SC=CN12 | < 0.2 |
| CCC(=O)Nc1nc(-c2ccccc2)nc(SC)c1C(C)=O | 0.4 (≈ 1.27 µM) |
| O=C(OCCN=C1NS(=O)(=O)c2ccccc21)c1cccc([N+](=O)[O-])c1 | 3 (≈ 7.99 µM) |
| Cc1ccc(C(=O)N=c2sccn2C)cc1C | 10 (≈ 40.6 µM) |
| Cc1cccn2c(=O)cc(COC(=O)C(C)Oc3ccccc3)nc12 (stereo not given) | 46.8 (≈ 138 µM) |
| CCC(CC)C(=O)Nc1ccc(-c2cn3cccnc3n2)cc1 | 43.4 (≈ 141 µM) |

| Compound | solubility kinetic [µg/mL] |
| --- | --- |
| COc1ccc(S(=O)(=O)N2CCOCC2)cc1NC(=O)CN(C)CC(=O)Nc1cccc(F)c1 | > 74.2 |
| CCOc1ccc(Nc2ncnc3ccc([N+](=O)[O-])cc23)cc1 | 4.1 (≈ 13.2 µM) |
| CNc1oc(-c2cccs2)nc1S(=O)(=O)c1ccccc1 | 4.2 (≈ 13.1 µM) |
| O=[N+]([O-])c1cccc(S(=O)(=O)c2cccc([N+](=O)[O-])c2)c1 | 0.4 (≈ 1.3 µM) |
| NC(=O)CCS(=O)(=O)c1ccc(Cl)cc1 | > 37.2 |
| CC(=O)c1sc(-c2ccc(Cl)cc2)nc1C | < 0.5 |
| CC(C)(C)NC(=O)COc1ccc2oc3c(c2c1)CCCC3 | 2.2 (≈ 7.3 µM) |
| CCOC(=O)CNC(=O)c1c(C)nn(C)c1Cl | > 39 |
| Cc1ccc(C(=O)NC(=O)OCCn2c(C)cnc2[N+](=O)[O-])cc1 | 48.2 (≈ 145 µM) |
| CCN1CCN(CC(=O)Nc2ccc(C(C)=O)cc2)CC1.Cl | 45.2 |
| CC1Cc2ccccc2N1C(=O)Cn1cc([N+](=O)[O-])ccc1=O (stereo not given) | > 47 |
| Cc1occc1C(=O)Nc1cccc(Cl)c1Cl | 4.5 (≈ 16.7 µM) |
| COc1ccc(Nc2c3c(nc4ccccc24)CCC3)c(OC)c1 | > 48.1 |
| O=C(COc1cccc(C(F)(F)F)c1)Nc1cccnc1 | > 44.4 |
| CC(C)Oc1ccc(CNC(=S)Nc2ccccc2)cc1Cl | 7.2 (≈ 21.5 µM) |
| Cc1ccc(NC(=O)CSCC(=O)O)cc1 | > 35.9 |
| COc1ccc(OC)c(N=C(N)N=C(N)N)c1 | > 35.6 |
| Cc1ccccc1NC(=O)NCC1CCN(C(=O)OC(C)(C)C)CC1 | > 52.1 |
| CCc1ccc(C2CC(=O)N(c3cccc(F)c3)C3=C2C(=O)OC3)cc1 (stereo not given) | 9.6 (≈ 27.3 µM) |
| CCCn1c(N)c(N2CCCCC2)c(=O)n(CC(=O)Nc2ccccc2C(F)(F)F)c1=O | 7.7 (≈ 17 µM) |
| O=C(CCSCc1cccc(F)c1)NCCc1ccccc1 | 18.4 (≈ 58 µM) |
| COc1ccc(CN2CCC(Cc3ccccc3)CC2)c(C)c1C | 17 (≈ 52.6 µM) |
| COCCCN1CN=C(NS(=O)(=O)c2ccc(C)cc2)NC1 | > 49 |
| O=C(O)C(=O)O.OC(CN1CCCC1)Cn1ccc2ccccc21 (stereo not given) | > 50.2 |

| Compound | solubility kinetic [µg/mL] |
| --- | --- |
| O=S(=O)(NC1=NCCCCC1)c1ccc(F)cc1 | > 40.5 |
| O=C1CSC(=S)N1c1cccc(F)c1 | 1 (≈ 4.4 µM) |
| O=C(c1ccc(S(=O)(=O)Nc2ccccc2Cl)cc1)N1CCCC1 | > 54.7 |
| CN(C)CCSc1nc(-c2ccccc2)nc2c1CCCC2 | 17.9 (≈ 57.1 µM) |
| O=C(NNC(=S)NC(=O)c1cccs1)c1cccnc1 | > 46 |
| Cc1cccc(OCCC(=O)Nc2ccc(Cl)cc2F)c1 | < 0.7 |
| O=C(Nc1nc2ccccc2[nH]1)c1cc(F)cc(F)c1 | 0.7 (≈ 2.56 µM) |
| N#C/C(=C\c1cccnc1)c1ccc([N+](=O)[O-])cc1 | 13.1 (≈ 52.1 µM) |
| CCN(Cc1ccccc1)C(=O)c1[nH]c2ccc(OC)cc2c1C | 31.2 (≈ 96.8 µM) |
| O=C(NCc1ccc2c(c1)OCO2)Nc1ccc2nsnc2c1 | 2.5 (≈ 7.61 µM) |
| COC(=O)c1cc(NC(=O)c2cccnc2)ccc1N1CCOCC1 | > 51.2 |
| Cc1ccc(C)c(OCC(=O)O/N=C(\N)c2cccnc2)c1 | 11.2 (≈ 37.4 µM) |
| CCn1c(COc2ccc(C)cc2)nc2ccccc21 | 2.2 (≈ 8.26 µM) |
| COc1cc2cc(NC(C)=O)cc(NCc3ccccc3)c2cc1OC | 4.2 (≈ 12 µM) |
| Cn1c(=NC(=O)COc2ccccc2)sc2ccccc21 | 0.8 (≈ 2.68 µM) |
| CN(CC(O)CN1CCOCC1)S(=O)(=O)[O-].[Na+] (stereo not given) | > 41.4 |
| COC(=O)c1ccc(NC(=O)c2ccc(OC(C)=O)c(OC)c2)cc1 | 3.1 (≈ 9.03 µM) |
| CCOC(=O)N1CCN(Cc2nc(-c3cccs3)no2)CC1 | 44 (≈ 136 µM) |
| O=C(COC(=O)C1=COCCO1)Nc1ccc(Br)cc1Br | 6.6 (≈ 15.7 µM) |
| CC(N)Cc1c[nH]c2c1ccc1ccccc12.Cl (stereo not given) | 33.9 |
| CCN1CCCC1CNS(=O)(=O)c1ccc(F)c(Cl)c1 (stereo not given) | 44.2 (≈ 138 µM) |
| O=C(O)C(=O)O.c1cncc(CNCCc2ccc3c(c2)OCO3)c1 | > 52 |
| N#CC1=C(N)Oc2cc(N)ccc2C1c1ccccc1Cl (stereo not given) | 32.9 (≈ 110 µM) |
| Cn1c(N)c(C(=O)Nc2ccc(-c3ccccc3)cc2)sc1=S | 0.6 (≈ 1.76 µM) |
